According to US11897887B2, “sGC stimulators” (Tisento Therapeutics Inc., priority 2017, dated 2024):

What follows are molecules tested against T1, sGC enzyme (Homo sapiens, UniProt Q02153) (assay: cGMP GloSensor cell-based assay, 384-well format). Settings: HEK293 cells expressing GloSensor 40F cGMP; 10 μM DETA-NONOate; 55 min incubation; normalized to high control Compound Y (30 μM); read-out: Glo-sGC Absolute EC50.
T1 construct: incorporated into these cells detect cGMP formed by the compounds stimulating the sGC enzyme; host or cells: HEK293 cells stably expressing the GloSensor 40F cGMP biosensor
T1 sequence (Q02153 1-619): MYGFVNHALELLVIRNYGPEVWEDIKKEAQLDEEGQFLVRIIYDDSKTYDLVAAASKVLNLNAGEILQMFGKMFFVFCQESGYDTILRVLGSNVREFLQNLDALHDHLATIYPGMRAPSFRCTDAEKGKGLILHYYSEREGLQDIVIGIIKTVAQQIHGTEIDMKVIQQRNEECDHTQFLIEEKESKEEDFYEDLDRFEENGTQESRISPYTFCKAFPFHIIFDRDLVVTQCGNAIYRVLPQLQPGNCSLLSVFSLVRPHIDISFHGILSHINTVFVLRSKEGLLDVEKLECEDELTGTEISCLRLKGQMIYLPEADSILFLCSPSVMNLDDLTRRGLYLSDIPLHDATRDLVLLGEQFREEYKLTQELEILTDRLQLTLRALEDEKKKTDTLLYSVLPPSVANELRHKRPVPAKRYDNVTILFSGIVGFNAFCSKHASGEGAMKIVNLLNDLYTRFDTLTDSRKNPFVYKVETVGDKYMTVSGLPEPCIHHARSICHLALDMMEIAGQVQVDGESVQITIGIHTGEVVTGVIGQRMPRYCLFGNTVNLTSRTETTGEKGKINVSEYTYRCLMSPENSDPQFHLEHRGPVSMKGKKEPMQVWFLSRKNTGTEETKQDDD
T1 sequence (Q02108 1-690 partner): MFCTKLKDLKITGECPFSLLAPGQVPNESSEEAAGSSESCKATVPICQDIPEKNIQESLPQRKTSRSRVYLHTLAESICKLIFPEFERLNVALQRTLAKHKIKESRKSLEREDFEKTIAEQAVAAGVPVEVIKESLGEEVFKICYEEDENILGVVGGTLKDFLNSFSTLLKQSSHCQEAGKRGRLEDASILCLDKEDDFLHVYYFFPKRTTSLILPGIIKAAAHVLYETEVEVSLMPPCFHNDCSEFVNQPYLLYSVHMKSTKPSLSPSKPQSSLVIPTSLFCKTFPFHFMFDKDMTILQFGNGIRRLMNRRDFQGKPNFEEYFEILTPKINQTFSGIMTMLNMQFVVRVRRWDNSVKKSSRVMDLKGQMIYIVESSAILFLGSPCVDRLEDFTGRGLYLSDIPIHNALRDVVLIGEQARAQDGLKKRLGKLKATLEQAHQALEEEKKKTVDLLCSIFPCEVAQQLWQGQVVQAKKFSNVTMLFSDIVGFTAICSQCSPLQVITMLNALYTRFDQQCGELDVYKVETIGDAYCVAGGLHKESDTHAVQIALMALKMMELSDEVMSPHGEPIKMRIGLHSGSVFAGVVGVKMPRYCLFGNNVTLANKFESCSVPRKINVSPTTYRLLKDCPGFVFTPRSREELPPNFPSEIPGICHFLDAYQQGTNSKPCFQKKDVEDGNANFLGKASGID
Method: Human embryonic kidney cells (HEK293) cells expressing GloSensor™ 40F cGMP (Part No: CS182801, Promega) were used to evaluate the activity of test compounds. The luminescent biosensors (engineered luciferase) that were incorporated into these cells detect cGMP formed by the compounds stimulating the sGC enzyme and emit luminescence.
cGMP GoSensor cells were maintained in Dulbecco's Modification of Eagle's Medium (DMEM) supplemented with fetal bovine serum (FBS, 10% final) and hygromycine (200 ug/ml). The day before assay, cells were plated in DMEM with 10% FBS in a 50 μL volume at a density of 1.5×10^4 cells/well in a poly-D-lysine coated 384-well flat white-bottom plate (Corning Cat No 35661). Cells were incubated overnight at 37° C. in a humidified chamber with 5% CO2. The next day, medium was removed and cells were replaced with 40 ul/well of GoSensor™, 2 mM (Promega Cat No E1291). Cells were treated for 90 minutes at 25° C. to allow the substrate to equilibrate in the cells. Test compounds and Diethylenetriamine NONOate (DETA-NONOate) was diluted to 3 mM (20×) in serum-free CO2 independent medium and serially diluted at 4× dilutions to create 5× dose curve from which 10 ul was added to the wells (x μM concentration for test compound solution and 10 μM concentration for DETA-NONOate solution; wherein x is one of the following final concentrations).
For the kinetics studies, luminescence was measured right away for 0.2 sec per well with Envision (Perkin Elmer). For endpoint SAR screening, data were collected after 55 min incubation at room temperature.
Data were normalized to a high control using the following equation: 100*(Sample-Low Control)/(High Control-Low Control), where the low control is the average of sixteen DMSO (1%) control datapoints, and the high control is the average of sixteen Compound Y (30 μM) datapoints, wherein Compound Y is depicted below. Data were fit using a 4-parameter fit (log(agonist) vs. response—variable slope) using GraphPad Prism Software v.5. n=2 for all compounds. The Absolute EC50 was interpolated from the curve fit and is defined as the concentration at which a given compound elicits 50% of the high control response after data normalization as indicated above. Compounds failing to elicit a minimum response of 50% are reported as >30 μM or ND (not determined). For compounds run in duplicate or n higher than 2, the result herein given is the geometric mean of the several results obtained.

Compound	EC50 [nM]
OC(CNc1nc(-c2cn3ccnc3c(Cc3ccccc3F)n2)ncc1F)(C(F)(F)F)C(F)(F)F [Compound I-2, 1,1,1,3,3,3-hexafluoro-2-(((5-fluoro-2-(8-(2-fluorobenzyl)imidazo[1,2-a]pyrazin-6-yl)pyrimidin-4-yl)amino)methyl)propan-2-ol]	≤ 100
NC(=O)[C@](O)(CNc1nc(-c2cn3ccnc3c(Cc3ccccc3F)n2)ncc1F)C(F)(F)F [Compound I-3]	≤ 100
NC(=O)[C@](O)(CNc1nc(-c2cn3ccnc3c(Cc3cc(F)ccc3F)n2)ncc1F)C(F)(F)F [Compound I-5]	≤ 100
OC(CNc1nc(-c2cn3ncnc3c(Cc3ccccc3F)n2)ncc1F)(C(F)(F)F)C(F)(F)F [Compound I-6]	100 to 1000
CC(C)(O)CNc1nc(-c2cn3c(Cl)cnc3c(Cc3ccccc3F)n2)ncc1F [Compound I-7]	100 to 1000
O=P([O-])([O-])OC(CNc1nc(-c2cn3ccnc3c(Cc3ccccc3F)n2)ncc1F)(C(F)(F)F)C(F)(F)F.[Na+].[Na+] [Compound I-15]	1000 to 30000

Now from value to molecule:

EC50 [nM]	Compound
100 to 1000	OC(CNc1nc(-c2cn3ccnc3c(Cc3ccccc3F)n2)ncc1Cl)C(F)(F)F (racemic) [Compound I-8]
1000 to 30000	COc1cnc(-c2cn3ncnc3c(Cc3ccccc3F)n2)nc1NCC(O)C(F)(F)F (racemic) [Compound I-11]
100 to 1000	OCCNc1ccnc(-c2cn3ccnc3c(Cc3ccccc3F)n2)n1 [Compound I-9]
1000 to 30000	Cc1c(F)cc(Cc2nc(-c3ncc(Cl)c(NCC(O)(C(F)(F)F)C(F)(F)F)n3)cn3ccnc23)cc1F [Compound I-10]
100 to 1000	N#Cc1cnc(-c2cn3ncnc3c(Cc3ccccc3F)n2)nc1NCC(O)(C(F)(F)F)C(F)(F)F [Compound I-12]
100 to 1000	NC(=O)[C@](O)(CNc1nc(-c2cn3ncnc3c(Cc3ccccc3F)n2)ncc1F)C(F)(F)F [Compound I-16]

What follows are molecules tested on Sprague-Dawley Rats (assay: Blood pressure change in Sprague-Dawley rats). Settings: conscious rat, Compound I-15 (prodrug salt of I-2) dosed orally in water at 10 mg/kg, 160 minutes post-dose.
Method: Male rats (250-350 g body weight, supplied by Harlan Laboratories) were anesthetized with ketamine/xylazine and a heparinized saline fluid filled catheter implanted into the right femoral artery. The catheter was exteriorized between the scapula, capped, and the animal allowed to recover for at least 7 days post surgery prior to any compound testing. Prior to testing animals were maintained on normal diet, with free access to drinking water, under a 12 hour light-dark cycle.
On the day of experimentation, under inhaled isoflurane anesthesia, the catheter was uncapped and connected to a tether (Instech Labs) and pressure transducer (Harvard Apparatus). Blood pressure and heart rate were subsequently captured and analyzed with a dedicated data capture system (PowerLab, ADInstruments). Data sampling rates were set at 1 cycle per second. Once connected, each rat was allowed to recover from anesthesia and baseline blood pressure and heart rate levels were established in these conscious, freely-moving animals. Once baseline was established either vehicle (0.5% methylcellulose or 100% PEG400) or test article was administered orally (PO, 10 mg/kg) and the effects on blood pressure and heart rate monitored for up to 24 hours.

Compound	decrease of MAP (mean arterial pressure) below baseline
OC(CNc1nc(-c2cn3ccnc3c(Cc3ccccc3F)n2)ncc1F)(C(F)(F)F)C(F)(F)F [Compound I-2, 1,1,1,3,3,3-hexafluoro-2-(((5-fluoro-2-(8-(2-fluorobenzyl)imidazo[1,2-a]pyrazin-6-yl)pyrimidin-4-yl)amino)methyl)propan-2-ol]	about 10 mmHg

Same assay, conditions: rat, dosed orally in water at 10 mg/kg, one hour post-dose

Compound	dosed Compound I-15 converted to Compound I-2 [%]
O=P([O-])([O-])OC(CNc1nc(-c2cn3ccnc3c(Cc3ccccc3F)n2)ncc1F)(C(F)(F)F)C(F)(F)F.[Na+].[Na+] [Compound I-15]	97.5
